Source: the CheMixHub ionic liquid set

Assay: xn = mol fraction of the nth substance listed

CCCC[n+]1ccn(C)c1.O=[N+]([O-])[O-] + CCCCCCO
viscosity [mPa·s], 100 kPa
Details	293.15 K	303.15 K	313.15 K	323.15 K
x1 = 0.0811	6.41	4.47	3.24	2.45
x1 = 0.1741	7.98	5.21	3.72	2.75
x1 = 0.2418	9.59	6.02	4.21	3.02
x1 = 0.3587	13.3	8.24	5.33	3.63
x1 = 0.4426	17.5	10.69	6.48	4.22
x1 = 0.5532	26.6	15.4	8.94	5.49
x1 = 0.6538	40.2	23	12.8	7.56
x1 = 0.7414	60.7	33.8	18.9	10.83
x1 = 0.8519	103.2	58.4	33.4	18.5
x1 = 0.9367	162	90.8	53.2	30.6
x1 = 1	224	125	75.1	45.2

CCCC[n+]1ccn(C)c1.O=[N+]([O-])[O-] + CCCCCO
100 kPa
Details	viscosity [mPa·s]
293.15 K, x1 = 0.4363	18.2
293.15 K, x1 = 0.5668	29.3
293.15 K, x1 = 0.7481	61
313.15 K, x1 = 0.6481	18.9
313.15 K, x1 = 0.8416	38.7
313.15 K, x1 = 0.9415	57.5
323.15 K, x1 = 0.0824	2.22
323.15 K, x1 = 0.9415	35.5

CCCC[n+]1ccn(C)c1.O=[N+]([O-])[O-] + CCCCO
101 kPa
Details	viscosity [mPa·s]
283.15 K, x2 = 0.456	47.92
288.15 K, x2 = 0.26	94.8
288.15 K, x2 = 0.565	23.86
293.15 K, x2 = 0.565	19.88
293.15 K, x2 = 0.848	5.88
298.15 K, x2 = 0.129	97
298.15 K, x2 = 0.456	25.72
298.15 K, x2 = 0.565	16.79
303.15 K, x2 = 0.26	43.31
303.15 K, x2 = 0.565	14.34
308.15 K, x2 = 0.129	56.32
308.15 K, x2 = 0.26	35.31
308.15 K, x2 = 0.65	8.91
308.15 K, x2 = 0.753	5.59
313.15 K, x2 = 0.361	21.55
313.15 K, x2 = 0.565	10.76
313.15 K, x2 = 0.65	7.8
313.15 K, x2 = 0.753	4.91
318.15 K, x2 = 0.26	24.53
318.15 K, x2 = 0.565	9.44
323.15 K, x2 = 0.361	15.85
323.15 K, x2 = 0.753	3.92
333.15 K, x2 = 0.361	12.03
333.15 K, x2 = 0.565	6.56

CC[n+]1ccn(CCOC)c1.N#C[S-] + CCCCO
viscosity [mPa·s], 100 kPa
Details	x1 = 0.1	x1 = 0.1999	x1 = 0.2996	x1 = 0.4001	x1 = 0.4996	x1 = 0.5995	x1 = 0.6979	x1 = 0.7993	x1 = 0.9	x1 = 1
288.15 K	4.85	6.76	9.62	13.89	20	27.4	40.1	53	72	93.1
293.15 K	4.22	5.84	8.21	11.73	16.88	22.5	32.3	42.1	56.5	70.8
298.15 K	3.73	5.1	7.11	10.04	14.26	19	26.4	34.1	44.9	55.8
303.15 K	3.3	4.49	6.22	8.68	12.18	16.18	22	28	36.4	44.3
308.15 K	2.93	4.01	5.48	7.57	10.46	13.82	18.7	23.4	30	36
313.15 K	2.62	3.57	4.86	6.66	9.07	11.91	16.06	19.9	25.1	29.7
318.15 K	2.35	3.21	4.34	5.9	7.94	10.35	13.87	17.27	21.3	24.9
